Assay results taken from US10092570B2 (Incyte Corporation, priority 2011, dated 2018).

molecular target: PI3Kδ (p110δ/p85α) (Homo sapiens (Human), UniProt O00329); experiment: Example A3: PI3Kδ scintillation proximity assay; assay type: biochemical; settings: scintillation proximity assay, 20 μM ATP, 4 nM PI3Kδ; read-out: PI3Kδ SPA IC50
Experimental: [γ-^33P]ATP (10 mCi/mL) was purchased from Perkin-Elmer (Waltham, Mass.). […] PI3Kδ (p110δ/p85α) was purchased from Millipore (Bedford, Mass.). ATP, MgCl2, DTT, EDTA, MOPS and CHAPS were purchased from Sigma-Aldrich (St. Louis, Mo.). Wheat Germ Agglutinin (WGA) YSi SPA Scintillation Beads was purchased from GE healthcare life sciences (Piscataway, N.J.).
The kinase reaction was conducted in polystyrene 384-well matrix white plate from Thermo Fisher Scientific in a final volume of 25 μL. Inhibitors were first diluted serially in DMSO and added to the plate wells before the addition of other reaction components. The final concentration of DMSO in the assay was 0.5%. The PI3K assays were carried out at room temperature in 20 mM MOPS, pH 6.7, 10 mM MgCl2, 5 mM DTT and CHAPS 0.03%. Reactions were initiated by the addition of ATP, the final reaction mixture consisted of 20 μM PIP2, 20 μM ATP, 0.2 μCi [γ-^33P] ATP, 4 nM PI3Kδ. […] 25 mM EDTA, 400 μM ATP. The final concentration of SPA beads was 1.0 mg/mL. After the plate sealing, plates were shaken overnight at room temperature and centrifuged at 1800 rpm for 10 minutes, the radioactivity of the product was determined by scintillation counting on Topcount (Perkin-Elmer). IC50 determination was performed by fitting the curve of percent control activity versus the log of the inhibitor concentration using the GraphPad Prism 3.0 software.

PI3Kδ (p110δ/p85α), sequence (O00329 whole entry): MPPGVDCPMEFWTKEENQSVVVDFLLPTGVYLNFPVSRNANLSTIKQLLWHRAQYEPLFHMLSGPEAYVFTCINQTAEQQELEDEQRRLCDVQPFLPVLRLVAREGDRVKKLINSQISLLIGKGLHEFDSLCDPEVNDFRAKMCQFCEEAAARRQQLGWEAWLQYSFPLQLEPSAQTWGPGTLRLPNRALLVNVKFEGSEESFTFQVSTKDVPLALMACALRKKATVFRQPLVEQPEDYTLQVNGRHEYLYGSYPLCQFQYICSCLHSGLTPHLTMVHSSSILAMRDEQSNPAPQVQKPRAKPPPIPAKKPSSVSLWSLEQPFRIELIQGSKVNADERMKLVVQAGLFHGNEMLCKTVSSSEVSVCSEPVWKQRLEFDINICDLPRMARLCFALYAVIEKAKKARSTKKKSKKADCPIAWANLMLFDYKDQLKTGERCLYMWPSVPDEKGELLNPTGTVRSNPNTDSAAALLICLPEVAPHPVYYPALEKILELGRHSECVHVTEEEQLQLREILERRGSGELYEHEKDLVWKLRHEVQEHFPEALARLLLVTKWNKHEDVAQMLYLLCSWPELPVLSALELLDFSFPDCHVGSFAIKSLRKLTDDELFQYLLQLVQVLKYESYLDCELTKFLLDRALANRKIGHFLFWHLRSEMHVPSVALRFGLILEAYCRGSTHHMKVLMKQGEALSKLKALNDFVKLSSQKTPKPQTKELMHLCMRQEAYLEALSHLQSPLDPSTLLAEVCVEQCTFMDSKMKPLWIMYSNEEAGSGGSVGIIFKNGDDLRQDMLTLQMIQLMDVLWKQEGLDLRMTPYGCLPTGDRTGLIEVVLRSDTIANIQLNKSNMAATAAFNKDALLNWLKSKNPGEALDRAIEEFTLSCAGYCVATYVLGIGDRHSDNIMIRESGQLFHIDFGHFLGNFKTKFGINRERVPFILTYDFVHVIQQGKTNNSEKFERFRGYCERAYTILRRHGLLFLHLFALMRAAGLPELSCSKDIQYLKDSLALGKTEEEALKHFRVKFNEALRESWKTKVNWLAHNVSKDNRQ
PI3Kδ (p110δ/p85α), sequence (P27986 whole entry partner): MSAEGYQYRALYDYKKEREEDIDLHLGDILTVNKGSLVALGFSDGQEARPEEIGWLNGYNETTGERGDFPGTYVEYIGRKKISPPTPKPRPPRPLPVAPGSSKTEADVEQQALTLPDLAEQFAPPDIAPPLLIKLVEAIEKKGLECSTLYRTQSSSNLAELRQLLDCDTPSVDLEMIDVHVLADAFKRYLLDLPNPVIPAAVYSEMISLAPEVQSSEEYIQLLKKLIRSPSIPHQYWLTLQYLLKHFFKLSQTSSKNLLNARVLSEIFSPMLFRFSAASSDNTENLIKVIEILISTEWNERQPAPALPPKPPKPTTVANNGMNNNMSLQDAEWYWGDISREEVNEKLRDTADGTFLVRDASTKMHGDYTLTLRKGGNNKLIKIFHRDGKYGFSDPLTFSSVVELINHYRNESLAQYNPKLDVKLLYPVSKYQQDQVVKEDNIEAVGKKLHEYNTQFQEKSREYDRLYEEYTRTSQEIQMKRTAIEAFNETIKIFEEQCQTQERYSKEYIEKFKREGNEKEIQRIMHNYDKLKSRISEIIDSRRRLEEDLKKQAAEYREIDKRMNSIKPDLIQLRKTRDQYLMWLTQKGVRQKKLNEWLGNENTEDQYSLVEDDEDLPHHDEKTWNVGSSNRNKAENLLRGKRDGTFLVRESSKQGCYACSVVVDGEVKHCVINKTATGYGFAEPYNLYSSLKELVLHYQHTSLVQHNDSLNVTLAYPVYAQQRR

Compound | IC50 [nM]
CCNC(=O)c1c(C)c(Cl)cc(C(C)n2nc(-c3cnc4[nH]ccc4c3)c3c(N)ncnc32)c1OCC (racemic) [Example 91, 3-{1-[4-Amino-3-(1H-pyrrolo[2,3-b]pyridin-5-yl)-1H-pyrazolo[3,4-d]pyrimidin-1-yl]ethyl}-5-chloro-2-ethoxy-N-ethyl-6-methylbenzamide] | < 10
CCNC(=O)c1c(C)c(Cl)cc(C(C)n2nc(-c3ccc4cn[nH]c4c3)c3c(N)ncnc32)c1OCC (racemic) [Example 92, 3-{1-[4-Amino-3-(1H-indazol-6-yl)-1H-pyrazolo[3,4-d]pyrimidin-1-yl]ethyl}-5-chloro-2-ethoxy-N-ethyl-6-methylbenzamide] | < 10
CCNC(=O)c1c(C)c(Cl)cc(C(C)n2nc(-c3ccc4[nH]ccc4c3)c3c(N)ncnc32)c1OCC (racemic) [Example 93, 3-{1-[4-Amino-3-(1H-indol-5-yl)-1H-pyrazolo[3,4-d]pyrimidin-1-yl]ethyl}-5-chloro-2-ethoxy-N-ethyl-6-methylbenzamide] | < 10
COc1c(C(C)n2nc(C(F)F)c3c(N)ncnc32)cc(C#N)c(C)c1C1CN(C(C)C)C1 (racemic) [Example 128, 5-{1-[4-amino-3-(difluoromethyl)-1H-pyrazolo[3,4-d]pyrimidin-1-yl]ethyl}-3-(1-isopropylazetidin-3-yl)-4-methoxy-2-methylbenzonitrile] | < 10
COc1c(C(C)n2nc(C(F)F)c3c(N)ncnc32)cc(C#N)c(C)c1C1CN(CC(F)(F)F)C1 (racemic) [Example 129, 5-{1-[4-Amino-3-(difluoromethyl)-1H-pyrazolo[3,4-d]pyrimidin-1-yl]ethyl}-4-methoxy-2-methyl-3-[1-(2,2,2-trifluoroethyl)azetidin-3-yl]benzonitrile] | < 10
COc1c(C(C)n2nc(C(F)F)c3c(N)ncnc32)cc(C#N)c(C)c1C1CN(CCO)C1 (racemic) [Example 130, 5-{1-[4-Amino-3-(difluoromethyl)-1H-pyrazolo[3,4-d]pyrimidin-1-yl]ethyl}-3-[1-(2-hydroxyethyl)azetidin-3-yl]-4-methoxy-2-methylbenzonitrile] | < 10
COc1c(C(C)n2nc(C(F)F)c3c(N)ncnc32)cc(C#N)c(C)c1C1CN(CC(C)(C)O)C1 (racemic) [Example 133, 5-{1-[4-Amino-3-(difluoromethyl)-1H-pyrazolo[3,4-d]pyrimidin-1-yl]ethyl}-3-[1-(2-hydroxy-2-methylpropyl)azetidin-3-yl]-4-methoxy-2-methylbenzonitrile] | < 10
COc1c(C(C)n2nc(C(F)F)c3c(N)ncnc32)cc(C#N)c(C)c1C1CN(CC(F)F)C1 (racemic) [Example 136, 5-{1-[4-Amino-3-(difluoromethyl)-1H-pyrazolo[3,4-d]pyrimidin-1-yl]ethyl}-3-[1-(2,2-difluoroethyl)azetidin-3-yl]-4-methoxy-2-methylbenzonitrile] | < 10
COc1c(C(C)n2nc(C(F)F)c3c(N)ncnc32)cc(C#N)c(C)c1C1CN(C(C)=O)C1 (racemic) [Example 138, 3-(1-Acetylazetidin-3-yl)-5-{1-[4-amino-3-(difluoromethyl)-1H-pyrazolo[3,4-d]pyrimidin-1-yl]ethyl}-4-methoxy-2-methylbenzonitrile] | < 10
CCOc1c(C(C)n2nc(C)c3c(N)ncnc32)cc(Cl)c(F)c1C1CN(CC(F)(F)F)C1 (racemic) [Example 141, 1-(1-{5-Chloro-2-ethoxy-4-fluoro-3-[1-(2,2,2-trifluoroethyl)azetidin-3-yl]phenyl}ethyl)-3-methyl-1H-pyrazolo[3,4-d]pyrimidin-4-amine] | < 10
CCOc1c(C(C)n2nc(C)c3c(N)ncnc32)cc(Cl)c(F)c1C1CN(CC(F)F)C1 (racemic) [Example 147, 1-(1-{5-Chloro-3-[1-(2,2-difluoroethyl)azetidin-3-yl]-2-ethoxy-4-fluorophenyl}ethyl)-3-methyl-1H-pyrazolo[3,4-d]pyrimidin-4-amine] | < 10
COc1c(C(C)n2nc(C)c3c(N)ncnc32)cc(Cl)c(C)c1C1CCN(CC(C)(C)O)CC1 (racemic) [Example 164, 1-(4-{3-[1-(4-Amino-3-methyl-1H-pyrazolo[3,4-d]pyrimidin-1-yl)ethyl]-5-chloro-2-methoxy-6-methylphenyl}piperidin-1-yl)-2-methylpropan-2-ol] | < 10
CCOc1c(C(C)n2nc(CC#N)c3c(N)ncnc32)cc(Cl)c(C)c1-c1ccc(C(=O)N(C)C)nc1 (racemic) [Example 165, 5-(3-{1-[4-Amino-3-(cyanomethyl)-1H-pyrazolo[3,4-d]pyrimidin-1-yl]ethyl}-5-chloro-2-ethoxy-6-methylphenyl)-N,N-dimethylpyridine-2-carboxamide] | < 10
CCOc1c(C(C)n2nc(C)c3c(N)ncnc32)cc(Cl)c(C#N)c1-c1ccc(C(C)(C)O)nc1 (racemic) [Example 316, 4-[1-(4-amino-3-methyl-1H-pyrazolo[3,4-d]pyrimidin-1-yl)ethyl]-6-chloro-3-ethoxy-2-[6-(1-hydroxy-1-methylethyl)pyridin-3-yl]benzonitrile] | < 10
CCOc1c(C(C)n2nc(C)c3c(N)ncnc32)cc(Cl)c(C#N)c1N1CCCC1 (racemic) [Example 318, 4-[1-(4-amino-3-methyl-1H-pyrazolo[3,4-d]pyrimidin-1-yl)ethyl]-6-chloro-3-ethoxy-2-pyrrolidin-1-ylbenzonitrile] | < 10
CCOc1c(C(C)n2nc(C)c3c(N)ncnc32)cc(C)c(C#N)c1C1CN(C(C)C)C1 (racemic) [Example 320, 4-[1-(4-amino-3-methyl-1H-pyrazolo[3,4-d]pyrimidin-1-yl)ethyl]-3-ethoxy-2-(1-isopropylazetidin-3-yl)-6-methylbenzonitrile] | < 10
CCOc1c(C(C)n2nc(C)c3c(N)ncnc32)cc(Cl)c(C#N)c1-c1cncnc1 (racemic) [Example 329, 4-[1-(4-amino-3-methyl-1H-pyrazolo[3,4-d]pyrimidin-1-yl)ethyl]-6-chloro-3-ethoxy-2-pyrimidin-5-ylbenzonitrile] | < 10
CCOc1c(C(C)n2nc(C)c3c(N)ncnc32)cc(Cl)c(C#N)c1-c1ccc(-c2cnn(C)n2)nc1 (racemic) [Example 337, 4-[1-(4-amino-3-methyl-1H-pyrazolo[3,4-d]pyrimidin-1-yl)ethyl]-6-chloro-3-ethoxy-2-[6-(2-methyl-2H-1,2,3-triazol-4-yl)pyridin-3-yl]benzonitrile] | < 10
CCOc1c(C(C)n2nc(C)c3c(N)ncnc32)cc(Cl)c(C#N)c1-c1ccc(-c2nnc(C)o2)nc1 (racemic) [Example 338, 4-[1-(4-amino-3-methyl-1H-pyrazolo[3,4-d]pyrimidin-1-yl)ethyl]-6-chloro-3-ethoxy-2-[6-(5-methyl-1,3,4-oxadiazol-2-yl)pyridin-3-yl]benzonitrile] | < 10
CCOc1c(C(C)n2nc(C)c3c(N)ncnc32)cc(Cl)c(C#N)c1-c1cncc(-c2ncco2)c1 (racemic) [Example 339, 4-[1-(4-amino-3-methyl-1H-pyrazolo[3,4-d]pyrimidin-1-yl)ethyl]-6-chloro-3-ethoxy-2-[5-(1,3-oxazol-2-yl)pyridin-3-yl]benzonitrile] | < 10
CCOc1c(C(C)n2nc(C)c3c(N)ncnc32)cc(Cl)c(C#N)c1N1CC(C#N)C1 (racemic) [Example 342, 1-{3-[1-(4-amino-3-methyl-1H-pyrazolo[3,4-d]pyrimidin-1-yl)ethyl]-5-chloro-6-cyano-2-ethoxyphenyl}azetidine-3-carbonitrile] | < 10
CCOc1c(C(C)n2nc(C)c3c(N)ncnc32)cc(C)c(C#N)c1-c1cnn(C)c1 (racemic) [Example 343, 4-[1-(4-amino-3-methyl-1H-pyrazolo[3,4-d]pyrimidin-1-yl)ethyl]-3-ethoxy-6-methyl-2-(1-methyl-1H-pyrazol-4-yl)benzonitrile] | < 10
COc1c(C(C)n2nc(C)c3c(N)ncnc32)cc(Cl)c(C)c1-c1cncc(C(=O)N(C)C)c1 (single isomer, unassigned) [Example 65, 5-{3-[1-(4-amino-3-methyl-1H-pyrazolo[3,4-d]pyrimidin-1-yl)ethyl]-5-chloro-2-methoxy-6-methylphenyl}-N,N-dimethylnicotinamide] | < 10
CCOc1c(C(C)n2nc(C)c3c(N)ncnc32)cc(Cl)c(C)c1C1CN(CC(C)(C)O)C1 (single isomer, unassigned) [Example 98, 1-(3-{3-[1-(4-Amino-3-methyl-1H-pyrazolo[3,4-d]pyrimidin-1-yl)ethyl]-5-chloro-2-ethoxy-6-methylphenyl}azetidin-1-yl)-2-methylpropan-2-ol] | < 10
COc1c(C(C)n2nc(C)c3c(N)ncnc32)cc(Cl)c(C)c1C1CN(CC#N)C1 (single isomer, unassigned) [Example 105, (3-{3-[1-(4-Amino-3-methyl-1H-pyrazolo[3,4-d]pyrimidin-1-yl)ethyl]-5-chloro-2-methoxy-6-methylphenyl}azetidin-1-yl)acetonitrile] | < 10
